Experiments:
p21 and p27 = p21 and p27 expression in myeloma and leukemia cells; assay type: cell-based; details: low micromolar concentrations
Protocol: To prepare cytosolic extracts, NIH3T3 cells and myeloma cells were washed with phosphate-buffered saline (PBS, pH 7.4) and suspending in lysis buffer [10 mM Tris (pH 7.4), 150 mM NaCl, 0.1% Triton X-100, 0.5% sodium deoxycholate, and 5 mM EDTA] containing protease inhibitors (Complete tablets, Roche, Indianapolis, Ind.). Protein concentrations were determined by the Bradford assay. Immunoblot assays were performed by subjecting equal amounts of protein to SDS-PAGE gels followed by transfer to Nitrocellulose membranes. Membranes were probed with polyclonal rabbit anti-human cyclin D2 (0.5 μg/ml, both from Santa Cruz Biotech, Santa Cruz, Calif.), or monoclonal mouse-anti human p21 (1:200 v/v, Santa Cruz Biotech), monoclonal mouse-anti human p27 (1:2,500 v/v BD Transduction Laboratories), polyclonal mouse-anti human ubiquitin (1:2,000 v/v Calbiochem) and monoclonal mouse-anti-β-actin (1:10,000 v/v) (Sigma, St. Lois, Mo.). […] Detection was performed by the Enhanced Chemical Luminescence (ECL) method (Pierce, Rockford, Ill.).
Cyclin D2 is over-expressed in multiple myeloma (MM) and a subset of high-risk patients with acute myeloid leukemia (AML), contributing to their pathogenesis and chemoresistance (17, 18) (19). […] Sixteen hours after the addition of the compounds, luciferase expression was measured as a marker of cyclin D2 transactivation. […]

[1] = system: OCI-AML2 human leukemia cells; assay: Cell viability MTS assay, AML2; assay type: cell-based; details: 72 hours
Protocol: (§1) LP-1 myeloma cells, MDAY-D2 murine leukemia/lymphoma cells, and OCI-AML2 human leukemia cells and A549 lung cancer cells were treated with increasing concentrations of compounds 5AHQ, HNQ, BCQ, COQ, and DiiodoQ (Table 1). 72 hours after incubation, cell viability was determined by an MTS assay. […] . Given the effects on cultured cells, 5AHQ was evaluated in a mouse model of leukemia. K562 cells were injected subcutaneously into NOD SCID mice. […] .

proteasome = biological target: T1, proteasome (Homo sapiens, UniProt P28074); assay: Proteasome inhibition in cells; details: resistant cells (for clioquinol including normal hematopoietic cells)
T1 sequence (P28074 60-263): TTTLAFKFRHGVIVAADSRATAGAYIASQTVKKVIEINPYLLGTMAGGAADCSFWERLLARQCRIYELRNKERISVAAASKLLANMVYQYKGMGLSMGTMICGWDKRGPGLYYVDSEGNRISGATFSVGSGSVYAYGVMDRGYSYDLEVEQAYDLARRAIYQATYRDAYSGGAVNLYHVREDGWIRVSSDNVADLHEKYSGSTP
Protocol: Cellular proteins were extracted from cells with lysis buffer (50 mM HEPES pH 7.5, 150 mM NaCl, 2 mM ATP, and 1% Triton X-100). The chymotrypsin-like activity of the proteasome was measured by incubating equal amounts of protein with the preferential chymotrypsin-like substrate Suc-LLVY-AMC in assay buffer (50 mM Tris-HCl, pH 7.5, 150 mM NaCl) for two hours. After incubation, was added and the rate of free AMC was measured over time with a florescent spectrophotometric plate reader (excitation=380 nm, emission=460 nm).

myeloma cell lines = assay: Cell viability panel, myeloma cell lines; details: read-out: IC50, induced cell death
Protocol: (§3) Cells were cultured at 37° C. with 5% CO2 in a humid incubator.
(§4) Cell viability was assessed with the CellTiter96® Aqueous Non-Radioactive Assay kit according to manufactures' instructions (Promega).
(§5) The effects of clioquinol on the viability of acute leukemia/lymphoma (n=7), myeloma (n=14), and solid tumor (n=5) cell lines as well as primary AML samples (n=6) and primary normal hematopoietic cells (n=3) was tested.

cyclin D2 promoter = assay: High throughput screen for inhibitors of cyclin D2 transactivation (luciferase); assay type: cell-based, Mouse; details: NIH3T3 cells with c-maf; ~5 μM; sixteen hours
Source text: The promoter of cyclin D2 (−894 to −4), containing c-maf responsive element sequence (MARE), was cloned from HeLa cell genomic DNA and subcloned into the pGL2 luciferase reporter vector (Promega, Madison, Wis.). This construct was co-transfected with pcDNA3.1 containing a neomycin resistance gene into NIH3T3 wild type cells and NIH3T3 cells stably over-expressing c-maf-IRES-GFP. Cells stably expressing c-maf, GFP, and luciferase were selected for further application.
NIH3T3 cells stably expressing c-maf and the cyclin D2 promoter driving luciferase (13,000 cells per well) were plated in 96-well plates by the Biomek FX liquid handler (Beckman, Fullerton, Calif.). The same workstation was used for plate formatting and reagent distribution. […] After incubation, cyclin D2 transactivation was assessed by the luciferase assay and viability was assessed by the MTS assay.
Luciferase activity was assessed according to the manufacturer's instructions (Promega, Madison, Wis.). […] After 10 min incubation, an equal volume of Bright-Glo Luciferase substrate (Promega) was added and the luminescence signal was detected with a 96-well Luminoskan luminescence plate reader (Thermo Labsystem, Waltham, Mass.) with a 5 second integration. […]

[2] = Copper binding: stability constant and Cu:ligand ratio; assay type: physicochemical
[3] = system: primary AML patient samples; assay: Cell viability, primary AML samples; assay type: cell-based; details: Homo sapiens; in 6/7 primary AML patient samples; forty-eight hours; read-out: IC50, induced cell death
[4] = system: MDAY-D2 murine leukemia/lymphoma cells; assay: Cell viability MTS assay, MDAY-D2; assay type: cell-based; details: 72 hours
Protocol: as §1

LP-1 myeloma cells = assay: Cell viability MTS assay, LP1; assay type: cell-based; details: 72 hours
Protocol: as §1

[5] = system: MDAY-D2 leukemia/lymphoma cells; assay type: in vivo, mice; details: oral 100 mg/kg twice daily, 10 days
Protocol: DBA-2 mice were injected intraperitoneally with MDAY-D2 murine leukemia cells. Mice were then treated twice daily by oral gavage with clioquinol (100 mg/kg) dissolved in intralipid or intralipid control. Ten days after treatment, mice were sacrificed, the intraperitoneal tumor excised, and the weight and volume of the tumor measured.
Given the effects on leukemia and lymphoma cell lines and primary patient samples, the compounds were tested in a leukemia/lymphoma xenograft model. MDAY-D2 leukemia/lymphoma cells were injected intraperitoneally into DBA2 mice. Mice were then treated twice daily with oral clioquinol (100 mg/kg) for 10 days. Ten days after treatment, mice were sacrificed and the weight and volume of the intraperitoneal tumor was measured. […] Similar results were obtained with a K562 leukemia, MDAY-D2 leukemia/lymphoma and OCI AML2 human leukemia xenograft (FIG. 4) K562 leukemia, MDAY-D2 leukemia/lymphoma or OCI AML2 human leukemia cells were injected subcutaneous into sublethally irradiated NOD-Scid mice. Animals were subsequently treated with 5AHQ. The 5AHQ treatment was initiated when tumors reached volumes of 200 mm^3 at which time mice were randomized to receive 100 mg/kg of 5AHQ (treated group) or buffer control (untreated group) for 5 of 7 days. […]

A549 lung cancer cells = assay: Cell viability MTS assay, A549; assay type: cell-based; details: 72 hours
Protocol: as §1

20S proteasome = biological target: T2, 20S proteasome (Homo sapiens, UniProt P28074); assay: Proteasome activity (chymotrypsin-like, Suc-LLVY-AMC); assay type: biochemical
T2 construct: Cellular proteins were extracted from cells with lysis buffer; endogenous in cells
T2 sequence (P28074 60-263): T1 sequence (P28074 60-263)
Protocol: Cellular proteins were extracted from cells with lysis buffer (50 mM HEPES pH 7.5, 150 mM NaCl, 2 mM ATP, and 1% Triton X-100). The chymotrypsin-like activity of the proteasome was measured by incubating equal amounts of protein with the preferential chymotrypsin-like substrate Suc-LLVY-AMC in assay buffer (50 mM Tris-HCl, pH 7.5, 150 mM NaCl) for two hours. After incubation, […] and the rate of free AMC was measured over time with a florescent spectrophotometric plate reader (excitation=380 nm, emission=460 nm).

[6] = system: acute leukemia/lymphoma cell lines; assay: Cell viability panel, acute leukemia/lymphoma cell lines; details: read-out: IC50, induced cell death
Protocol: as §3, §4, §5

[7] = system: primary normal hematopoietic cells; assay: Cell viability, primary normal hematopoietic cells; assay type: cell-based; details: forty-eight hours
[8] = after oral administration, patients; cited from earlier work
solid tumor cell lines = assay: Cell viability panel, solid tumor cell lines
Protocol: as §3, §4, §5

[9] = system: myeloma and leukemia cells; assay: Cell cycle analysis; assay type: cell-based; details: low micromolar concentrations
Protocol: Cells were harvested, washed with cold PBS, suspended in 70% cold ethanol and incubated overnight at −20° C. Cells were then treated with 100 ng/ml of DNase-free RNase (InvitroGen) at 37° C. for 30 min, washed with cold PBS, and resuspended in PBS with 50 μg/ml of propidium iodine. DNA content was analyzed by flow cytometry (FACSCalibur, Becton Dickinson, Florida, USA). The percentage of cells in each phase of the cell cycle was calculated with ModiFit software (Becton Dickinson).
Cyclin D2 is over-expressed in multiple myeloma (MM) and a subset of high-risk patients with acute myeloid leukemia (AML), contributing to their pathogenesis and chemoresistance (17, 18) (19). One of the regulators of cyclin D2 is the oncogene c-maf that is also frequently over-expressed in MM (27). Therefore, it was sought to identify c-maf dependent and independent inhibitors of cyclin D2. To identify such small molecule inhibitors, a high throughput chemical genomics screen was developed. […] Sixteen hours after the addition of the compounds, luciferase expression was measured as a marker of cyclin D2 transactivation. […]

[10] = system: OCI AML2 human leukemia cells; assay: OCI AML2 xenograft in NOD-Scid mice; assay type: in vivo; details: OCI AML2 subcutaneous; 100 mg/kg for 5 of 7 days
Protocol: (§2) Given the effects on leukemia and lymphoma cell lines and primary patient samples, the compounds were tested in a leukemia/lymphoma xenograft model. MDAY-D2 leukemia/lymphoma cells were injected intraperitoneally into DBA2 mice. Mice were then treated twice daily with oral clioquinol (100 mg/kg) for 10 days. Ten days after treatment, mice were sacrificed and the weight and volume of the intraperitoneal tumor was measured. […] Similar results were obtained with a K562 leukemia, MDAY-D2 leukemia/lymphoma and OCI AML2 human leukemia xenograft (FIG. 4) K562 leukemia, MDAY-D2 leukemia/lymphoma or OCI AML2 human leukemia cells were injected subcutaneous into sublethally irradiated NOD-Scid mice. Animals were subsequently treated with 5AHQ. The 5AHQ treatment was initiated when tumors reached volumes of 200 mm^3 at which time mice were randomized to receive 100 mg/kg of 5AHQ (treated group) or buffer control (untreated group) for 5 of 7 days. Caliper measurements were performed twice weekly to estimate tumor volume and differences compared between treated and untreated groups.

[11] = system: K562 human leukemia cells; assay: K562 leukemia xenograft in NOD/SCID mice; assay type: in vivo
Protocol: Sublethally irradiated (3.54 Gy) NOD/SCID mice were injected subcutaneously with K562 human leukemia cells. One week later, mice were then treated daily by oral gavage with 5AHQ (50 mg/kg) in water. Three weeks after injection of cells, mice were sacrificed, the subcutaneous tumor excised, and the weight and volume of the tumor measured.
as §2
LP-1 myeloma cells, MDAY-D2 murine leukemia/lymphoma cells, and OCI-AML2 human leukemia cells and A549 lung cancer cells were treated with increasing concentrations of compounds 5AHQ, HNQ, BCQ, COQ, and DiiodoQ (Table 1). 72 hours after incubation, cell viability was determined by an MTS assay. […]. Given the effects on cultured cells, 5AHQ was evaluated in a mouse model of leukemia. K562 cells were injected subcutaneously into NOD SCID mice. […].

[12] = system: MDAY-D2 leukemia/lymphoma; assay: MDAY-D2 subcutaneous tumor in NOD-Scid mice; assay type: in vivo; details: 100 mg/kg for 5 of 7 days
Protocol: as §2

Row | SMILES | LD50 whole cell, AML2 [1] [μm] | IC50 (myeloma cell lines) [µM] | K (stability) [2] | LD50 whole cell, MDAY-D2 [4] [μm] | LD50 whole cell, LP1 (LP-1 myeloma cells) [μm] | LD50 whole cell, A549 (A549 lung cancer cells) [μm] | IC50 (20S proteasome) [µM] | IC50 [6] [µM] | also measured
1 | Oc1c(I)cc(Cl)c2cccnc12 [Clioquinol, 5-chloro-7-iodo-8-hydroxyquinoline, reference compound] | 3.9 | < 20 | 9.06 | 15.6 | 31.25 | 250 | 12.5 | < 20 | p21 and p27 expression (p21 and p27): increased expression of p21 and p27; proteasomal inhibition in compound-resistant cells (proteasome): no proteasomal inhibition was detected; inhibition of cyclin D2 promoter (luciferase) (cyclin D2 promoter): c-maf independent inhibitors of the cyclin D2 promoter; IC50 [3]: < 20 µM; tumor progression [5]: delayed tumor progression; samples with induced cell death at IC50<20 μM [7]: 0/3; trough serum concentration [8]: 20 µM; cell lines with induced cell death at IC50<20 μM (solid tumor cell lines; solid tumor, forty-eight hours): 0/5; cell cycle effect [9]: arrested cells in the G1 phase
2 | Oc1ccc(Cl)c2cccnc12 [COQ, 5-chloro-8-hydroxyquinoline] | 3.9 | – | 8.89 | 3.9 | 31.25 | 62.5 | 62.5 | – | –
3 | Oc1c(I)cc(I)c2cccnc12 [DiiodoQ, reference compound] | 62.5 | – | – | 31.25 | – | 250 | > 1000 | – | –
4 | O=[N+]([O-])c1ccc(O)c2ncccc12 [HNQ, 8-hydroxy-5-nitroquinoline] | – | – | 9.13 | – | 15.6 | – | 15.6 | – | –
5 | Oc1c(Br)cc(Cl)c2cccnc12 [BCQ, 7-bromo-5-chloro-8-hydroxyquinoline] | – | – | 10.24 | – | 31.25 | – | 15.6 | – | –
6 | Nc1ccc(O)c2ncccc12 [5AHQ, 5-amino-8-hydroxyquinoline] | 3.9 | < 15 | 9.84 | 7.8 | 12.5 | 31.25 | – | < 15 | tumor growth (volume) [10]: delayed tumor growth; tumor weight and volume ([11]; 50 mg/kg in water, oral gavage, three weeks after injection of cells): reduced tumor weight and volume; tumor growth (volume) ([11]; K562 subcutaneous, 100 mg/kg for 5 of 7 days): delayed tumor growth; efficacy dose in mice xenografts ([11]; mouse, in vivo): 50 mg/kg/day; toxicity ([11]; mouse, in vivo): No significant toxicity; tumor growth (volume) [12]: delayed tumor growth; IC50 (solid tumor cell lines; read-out: IC50, induced cell death): < 15 µM
